Literature values as cited in patent publication US5707615A, “Method of treating HIV infections with anti-viral formulations” (Merrell Pharmaceuticals Inc., priority 1997, dated 1998).

What was measured:
[1] = system: influenza; conditions: cited from earlier work
[2] = system: HIV; conditions: cited from earlier work

Row | Compound | viral protein glycosylation [1] | expression of HIV glycoproteins and formation of syncytia [2]
1 | 2-deoxy-2-fluoroglucose | inhibited viral protein glycosylation | 
2 | O=CC[C@@H](O)[C@H](O)[C@H](O)CO [2-deoxy-D-glucose] | inhibited viral protein glycosylation | inhibit expression of HIV glycoproteins and block the formation of syncytia
3 | CCC(O)[C@H](N)C(=O)O (stereo partly drawn) [β-hydroxy-norvaline] |  | inhibit expression of HIV glycoproteins and block the formation of syncytia
